The record followed here is patent US8765211B2, “Method for coating metal implants with therapeutic mixtures” (Enbio Limited, priority 2009, dated 2014).

Data set [1] is described as follows: Elution of vancomycin from beaded Ti coupons with zero, one or two PLGA layers in PBS buffer (UV/VIS). Type of data set: physicochemical. Conditions: beaded Ti coupon. As to the method:
A 25 mm diameter coupon with a sintered titanium beaded surface was used as the test substrate. […] Vancomycin was dissolved in water to produce a solution of 0.5 g/25 ml. 0.5 ml of this solution was then applied in droplet form to the surface of each sample coupon and allowed to dry in an oven at 40° C. This technique was repeated three times to give a total loading of 1.5 ml of the vancomycin solution per coupon.
PLGA polymer (2.5 g) was dissolved in 50 mL of dichloromethane solvent. The polymer solution was added to the surface of the drug loaded coupons in a dropwise fashion similar to that employed to deploy the drug. Again, three applications of 0.5 ml were applied to produce a single layer of polymer with sufficient time being allowed between each application to allow the solvent to evaporate.
To investigate the effect of polymer coating thickness, a second set of three PLGA solutions were applied to form a batch of samples with 6 applications of polymer in total. This produced a sample with twice the coating thickness and is therefore herein referred to as having two layers of polymer.
All samples were then treated with an abrasive blasting process as described in WO2008/033867. The equipment platform was a Comco Standard Lathe. Two nozzles were employed to deliver an abrasive and a dopant respectively. The abrasive chosen was MCD 106 microns (Himed, NY, USA) and the dopant was hydroxyapatite (25/60 microns, SAI, France). The abrasive was delivered at a pressure of 75 psi and the dopant was delivered at 90 psi. The substrate was moved at a speed of 13 mm/sec relative to the nozzles.
Drug elution studies were carried out in PBS buffer solution and drug concentrations were determined using an Agilent 8453 UV/VIS spectrophotometer system. The elution profile of samples with zero, one and two layers of polymer were determined over 48 hours and the % vancomycin elution was determined. […] In the absence of any polymer coating, the drug had effectively eluted form the surface within 30 minutes and no further elution was detected.

Data set [2] in a line: Elution of gentamicin sulphate from PLGA-coated, abrasively blasted porous beaded titanium hip stem in phosphate saline buffer (Abbott TDx/FLX). Type of data set: physicochemical. The following applies: Summit hip stem with Porocoat finish, GS plus PLGA overcoat, blasted with MCD/HA; immersed in 300 ml phosphate saline buffer. The procedure: This example describes the modification of an implantable titanium hip stem containing a porous beaded surface. A Summit hip stem (DePuy) with a Porocoat finish was used as the substrate. The active chosen for study was gentamicin sulphate (GS).
The stem was first coated GS by dissolving 0.6 g of GS in 10 ml of water and applying the solution to the surface drop wise. In total, 0.1575 g of GS was added to the surface. Once dry, a polymer overcoat was applied by adding a solution of PLGA (3.5 g of PLGA in 10 ml of dichloromethane) dropwise and allowing to dry The coated hip stem was then abrasively blasted as per WO2008/033867 to remove the outer layer of polymer. Blasting was carried out in a Comco Standard Lathe operating at a pressure of 100 psi. MCD abrasive grit (Supplied by Himed, New York) was used as the abrasive and HA (SAI, France) was used as the dopant. Each powder was fed in a separate stream at the surface at a pressure of 100 psi and with an offset distance of 15-25 mm. The blast device was moved over the surface at a speed of approximately 100 mm/sec.
Elution of the drug from the surface was evaluated by immersing the entire hip stem in 300 ml of phosphate saline buffer and measuring drug concentration in solution using an Abbott TDx/FLX system. […]

In the case of `CN[C@H](CC(C)C)C(=O)N[C@H]1C(=O)N[C@@H](CC(N)=O)C(=O)N[C@H]2C(=O)N[C@H]3C(=O)N[C@H](C(=O)N[C@H](C(=O)O)c4cc(O)cc(O)c4-c4cc3ccc4O)[C@H](O)c3ccc(c(Cl)c3)Oc3cc2cc(c3O[C@@H]2O[C@H](CO)[C@@H](O)[C@H](O)[C@H]2O[C@H]2C[C@](C)(N)[C@H](O)[C@H](C)O2)Oc2ccc(cc2Cl)[C@H]1O` [vancomycin], the “time by which the drug had effectively eluted from the surface” value in data set [1] (no polymer coating (zero layers)) was at most 30 min. Moreover, the “time to complete elution” value in data set [1] (single layer of polymer (3 applications of PLGA)) is recorded as “up to 10 hours”. Further, the elution duration in data set [1] (twice the thickness of polymer (6 applications of PLGA, two layers)) is 24 h.
With gentamicin sulphate, in data set [2], the “duration of gentamicin release” value is 4 days and the “time in which the bulk of the drug is released” value was “within the first day”.
